System: patients with recurrent malignant glioma classified as WHO grade III or IV
Test: Phase 1 dose-escalation clinical trial: safety (TEAEs, DLTs, MTD);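 further: dosing continued until unacceptable toxicity, consent withdrawal, loss to follow-up or investigator/sponsor decision, with cohorts of 1-6 patients per dose level and MTD estimated by BLRM from cumulative DLT data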
[1] = 20 mg (N=2), cutoff April 21, 2023
[2] = 20 mg QD (N=2), cutoff April 21, 2024
[3] = 40 mg (N=4), cutoff April 21, 2023
[4] = 40 mg QD (N=4), cutoff April 21, 2024
[5] = 80 mg (N=3), cutoff April 21, 2023
[6] = 80 mg QD (N=3), cutoff April 21, 2024
[7] = 120 mg (N=6), cutoff April 21, 2023
[8] = 120 mg QD (N=6), cutoff April 21, 2024
[9] = 180 mg (N=3), cutoff April 21, 2023
[10] = 180 mg QD (N=6), cutoff April 21, 2024

Experimental: Administration to each subject was continued until unacceptable toxicity occurred, consent was withdrawn, the subject was lost to follow-up, or discontinuation was determined by the investigator and/or the sponsor.
The present study consists of two parts: a dose-escalation part (Part 1) and a dose-expansion part (Part 2).
Each dose level was evaluated in cohorts of 1-6 patients. In all cohorts, administration of the investigational drug to the second and subsequent patients was permitted after completion of all safety assessments on Day 8 of Cycle 1 in the first patient. […] At dose level 2 in the dose-escalation part, at least three patients were required to be evaluated before escalation to a higher dose level. After completion of each cohort, the probability of observing a DLT at each dose level in the present study was updated using the BLRM based on cumulative data from the preceding cohorts, and the MTD was estimated.

## CC1(C)Oc2cc(Cl)ccc2[C@@H]2OCC3(CCN(CCn4ccnc4)CC3)C[C@H]21 [Compound 1, (4'aR,10'bR)-8'-chloro-1-[2-(1H-imidazol-1-yl)ethyl]-5',5'-dimethyl-4'a,10'b-dihydro-2'H,4'H,5'H-spiro[piperidine-4,3'-pyrano[3,2-c][1]benzopyran] diphosphate]
[1]
  Number of patients with any TEAE: 2 (100) n (%)
  TEAE: constipation: 0 n (%)
  TEAE: decreased appetite: 0 n (%)
  TEAE: decreased lymphocyte count: 0 n (%)
  TEAE: decreased neutrophil count: 0 n (%)
  TEAE: decreased platelet count: 0 n (%)
  TEAE: decreased white blood cell count: 0 n (%)
  TEAE: dry skin: 1 (50.0) n (%)
  TEAE: fall: 0 n (%)
  TEAE: headache: 0 n (%)
  TEAE: hypertrigly-ceridaemia: 0 n (%)
  TEAE: hyponatremia: 0 n (%)
  TEAE: increased alanine aminotransferase: 1 (50.0) n (%)
  TEAE: increased aspartate aminotransferase: 1 (50.0) n (%)
  TEAE: nausea: 1 (50.0) n (%)
  TEAE: seizure: 1 (50.0) n (%)
  TEAE: vomiting: 0 n (%)
[2]
  Number of Patients with Any TEAE: 2 (100) n (%)
  TEAE: Confusional state: 0 n (%)
  TEAE: Gait disturbance: 0 n (%)
  TEAE: Gastrointestinal disorder: 0 n (%)
  TEAE: Hiccups: 0 n (%)
  TEAE: Tremor: 0 n (%)
  TEAE: alopecia: 0 n (%)
  TEAE: constipation: 0 n (%)
  TEAE: decreased appetite: 0 n (%)
  TEAE: decreased lymphocyte count: 0 n (%)
  TEAE: decreased neutrophil count: 0 n (%)
  TEAE: decreased platelet count: 0 n (%)
  TEAE: diarrhea: 0 n (%)
  TEAE: dry skin: 1 (50.0) n (%)
  TEAE: fall: 0 n (%)
  TEAE: fatigue: 0 n (%)
  TEAE: headache: 0 n (%)
  TEAE: hypertrigly-ceridaemia: 0 n (%)
  TEAE: hyponatremia: 0 n (%)
  TEAE: increase in blood cholesterol: 0 n (%)
  TEAE: increased alanine aminotransferase: 1 (50.0) n (%)
  TEAE: increased aspartate aminotransferase: 1 (50.0) n (%)
  TEAE: maculopapular rash: 0 n (%)
  TEAE: nausea: 1 (50.0) n (%)
  TEAE: seizure: 1 (50.0) n (%)
  TEAE: vomiting: 0 n (%)
20 mg to 240 mg, cutoff April 21, 2023
  dose-limiting toxicities: No dose-limiting toxicities were observed at any dose level
20 mg, 120 mg, and 180 mg groups, cutoff April 21, 2023
  serious TEAE: seizure: three
[3]
  Number of patients with any TEAE: 4 (100) n (%)
  TEAE: constipation: 1 (25.0) n (%)
  TEAE: decreased appetite: 1 (25.0) n (%)
  TEAE: decreased lymphocyte count: 2 (50.0) n (%)
  TEAE: decreased neutrophil count: 2 (50.0) n (%)
  TEAE: decreased platelet count: 2 (50.0) n (%)
  TEAE: decreased white blood cell count: 2 (50.0) n (%)
  TEAE: dry skin: 0 n (%)
  TEAE: fall: 1 (25.0) n (%)
  TEAE: headache: 1 (25.0) n (%)
  TEAE: hypertrigly-ceridaemia: 1 (25.0) n (%)
  TEAE: hyponatremia: 1 (25.0) n (%)
  TEAE: increased alanine aminotransferase: 1 (25.0) n (%)
  TEAE: increased aspartate aminotransferase: 2 (50.0) n (%)
  TEAE: nausea: 2 (50.0) n (%)
  TEAE: seizure: 1 (25.0) n (%)
  TEAE: vomiting: 1 (25.0) n (%)
[4]
  Number of Patients with Any TEAE: 4 (100) n (%)
  TEAE: Confusional state: 0 n (%)
  TEAE: Gait disturbance: 0 n (%)
  TEAE: Gastrointestinal disorder: 0 n (%)
  TEAE: Hiccups: 2 (50.0) n (%)
  TEAE: Tremor: 0 n (%)
  TEAE: alopecia: 1 (25.0) n (%)
  TEAE: constipation: 1 (25.0) n (%)
  TEAE: decreased appetite: 1 (25.0) n (%)
  TEAE: decreased lymphocyte count: 2 (50.0) n (%)
  TEAE: decreased neutrophil count: 2 (50.0) n (%)
  TEAE: decreased platelet count: 2 (50.0) n (%)
  TEAE: diarrhea: 0 n (%)
  TEAE: dry skin: 0 n (%)
  TEAE: fall: 1 (25.0) n (%)
  TEAE: fatigue: 1 (25.0) n (%)
  TEAE: headache: 1 (25.0) n (%)
  TEAE: hypertrigly-ceridaemia: 1 (25.0) n (%)
  TEAE: hyponatremia: 1 (25.0) n (%)
  TEAE: increase in blood cholesterol: 0 n (%)
  TEAE: increased alanine aminotransferase: 1 (25.0) n (%)
  TEAE: increased aspartate aminotransferase: 2 (50.0) n (%)
  TEAE: maculopapular rash: 0 n (%)
  TEAE: nausea: 2 (50.0) n (%)
  TEAE: seizure: 1 (25.0) n (%)
  TEAE: vomiting: 1 (25.0) n (%)
40 mg QD group, cutoff April 21, 2024
  serious TEAE: disease progression: one
40 mg group, cutoff April 21, 2023
  serious TEAE: disease progression: one
[5]
  Number of patients with any TEAE: 3 (100) n (%)
  TEAE: constipation: 0 n (%)
  TEAE: decreased appetite: 0 n (%)
  TEAE: decreased lymphocyte count: 0 n (%)
  TEAE: decreased neutrophil count: 2 (66.7) n (%)
  TEAE: decreased platelet count: 1 (33.3) n (%)
  TEAE: decreased white blood cell count: 1 (33.3) n (%)
  TEAE: dry skin: 0 n (%)
  TEAE: fall: 0 n (%)
  TEAE: headache: 1 (33.3) n (%)
  TEAE: hypertrigly-ceridaemia: 0 n (%)
  TEAE: hyponatremia: 1 (33.3) n (%)
  TEAE: increased alanine aminotransferase: 2 (66.7) n (%)
  TEAE: increased aspartate aminotransferase: 0 n (%)
  TEAE: nausea: 2 (66.7) n (%)
  TEAE: seizure: 0 n (%)
  TEAE: vomiting: 0 n (%)
[6]
  Number of Patients with Any TEAE: 3 (100) n (%)
  TEAE: Confusional state: 0 n (%)
  TEAE: Gait disturbance: 0 n (%)
  TEAE: Gastrointestinal disorder: 0 n (%)
  TEAE: Hiccups: 0 n (%)
  TEAE: Tremor: 0 n (%)
  TEAE: alopecia: 0 n (%)
  TEAE: constipation: 0 n (%)
  TEAE: decreased appetite: 0 n (%)
  TEAE: decreased lymphocyte count: 0 n (%)
  TEAE: decreased neutrophil count: 2 (66.7) n (%)
  TEAE: decreased platelet count: 1 (33.3) n (%)
  TEAE: diarrhea: 0 n (%)
  TEAE: dry skin: 0 n (%)
  TEAE: fall: 0 n (%)
  TEAE: fatigue: 0 n (%)
  TEAE: headache: 1 (33.3) n (%)
  TEAE: hypertrigly-ceridaemia: 0 n (%)
  TEAE: hyponatremia: 1 (33.3) n (%)
  TEAE: increase in blood cholesterol: 0 n (%)
  TEAE: increased alanine aminotransferase: 2 (66.7) n (%)
  TEAE: increased aspartate aminotransferase: 0 n (%)
  TEAE: maculopapular rash: 0 n (%)
  TEAE: nausea: 2 (66.7) n (%)
  TEAE: seizure: 0 n (%)
  TEAE: vomiting: 0 n (%)
[7]
  Number of patients with any TEAE: 6 (100) n (%)
  TEAE: constipation: 2 (33.3) n (%)
  TEAE: decreased appetite: 0 n (%)
  TEAE: decreased lymphocyte count: 0 n (%)
  TEAE: decreased neutrophil count: 1 (16.7) n (%)
  TEAE: decreased platelet count: 0 n (%)
  TEAE: decreased white blood cell count: 0 n (%)
  TEAE: dry skin: 1 (16.7) n (%)
  TEAE: fall: 1 (16.7) n (%)
  TEAE: headache: 2 (33.3) n (%)
  TEAE: hypertrigly-ceridaemia: 1 (16.7) n (%)
  TEAE: hyponatremia: 1 (16.7) n (%)
  TEAE: increased alanine aminotransferase: 2 (33.3) n (%)
  TEAE: increased aspartate aminotransferase: 1 (16.7) n (%)
  TEAE: nausea: 2 (33.3) n (%)
  TEAE: seizure: 1 (16.7) n (%)
  TEAE: vomiting: 2 (33.3) n (%)
[8]
  Number of Patients with Any TEAE: 6 (100) n (%)
  TEAE: Confusional state: 0 n (%)
  TEAE: Gait disturbance: 0 n (%)
  TEAE: Gastrointestinal disorder: 0 n (%)
  TEAE: Hiccups: 0 n (%)
  TEAE: Tremor: 0 n (%)
  TEAE: alopecia: 0 n (%)
  TEAE: constipation: 2 (33.3) n (%)
  TEAE: decreased appetite: 0 n (%)
  TEAE: decreased lymphocyte count: 0 n (%)
  TEAE: decreased neutrophil count: 1 (16.7) n (%)
  TEAE: decreased platelet count: 0 n (%)
  TEAE: diarrhea: 1 (16.7) n (%)
  TEAE: dry skin: 1 (16.7) n (%)
  TEAE: fall: 1 (16.7) n (%)
  TEAE: fatigue: 0 n (%)
  TEAE: headache: 2 (33.3) n (%)
  TEAE: hypertrigly-ceridaemia: 1 (16.7) n (%)
  TEAE: hyponatremia: 1 (16.7) n (%)
  TEAE: increase in blood cholesterol: 0 n (%)
  TEAE: increased alanine aminotransferase: 2 (33.3) n (%)
  TEAE: increased aspartate aminotransferase: 1 (16.7) n (%)
  TEAE: maculopapular rash: 0 n (%)
  TEAE: nausea: 2 (33.3) n (%)
  TEAE: seizure: 1 (16.7) n (%)
  TEAE: vomiting: 2 (33.3) n (%)
120 mg QD group, cutoff April 21, 2024
  serious TEAE: aphasia: one
120 mg group, cutoff April 21, 2023
  serious TEAE: aphasia: one
[9]
  Number of patients with any TEAE: 3 (100) n (%)
  TEAE: constipation: 1 (33.3) n (%)
  TEAE: decreased appetite: 1 (33.3) n (%)
  TEAE: decreased lymphocyte count: 1 (33.3) n (%)
  TEAE: decreased neutrophil count: 1 (33.3) n (%)
  TEAE: decreased platelet count: 1 (33.3) n (%)
  TEAE: decreased white blood cell count: 0 n (%)
  TEAE: dry skin: 0 n (%)
  TEAE: fall: 1 (33.3) n (%)
  TEAE: headache: 0 n (%)
  TEAE: hypertrigly-ceridaemia: 1 (33.3) n (%)
  TEAE: hyponatremia: 0 n (%)
  TEAE: increased alanine aminotransferase: 2 (66.7) n (%)
  TEAE: increased aspartate aminotransferase: 0 n (%)
  TEAE: nausea: 1 (33.3) n (%)
  TEAE: seizure: 1 (33.3) n (%)
  TEAE: vomiting: 1 (33.3) n (%)
[10]
  Number of Patients with Any TEAE: 6 (100) n (%)
  TEAE: Confusional state: 1 (16.7) n (%)
  TEAE: Gait disturbance: 1 (16.7) n (%)
  TEAE: Gastrointestinal disorder: 2 (33.3) n (%)
  TEAE: Hiccups: 0 n (%)
  TEAE: Tremor: 2 (33.3) n (%)

Reference: patent EP4806435A1, “DIHYDROCHROMENE-DERIVATIVE-CONTAINING THERAPEUTIC AGENT FOR CANCER” (Sumitomo Pharma Co., Ltd., priority 2023, dated 2025)
